Measurements reported in patent US5686466A, “Tricyclic condensed heterocyclic compounds their production and use” (priority 1993, dated 1997).
Structures can show the parent of a compound that is named as a salt.

Assays:
Acetylcholinesterase = target: T1, Acetylcholinesterase (Rattus norvegicus, UniProt P37136); assay: cholinesterase inhibitory activity using (acetyl-[^3 H])-acetylcholine, S1 fraction of rat cerebral cortex homogenate; assay type: biochemical, male Wistar rat; conditions: 30 min incubation
T1 construct: Using the S1 fraction of a male Wistar rat cerebral cortex homogenate as a source of cholinesterase; from tissue; host or cells: male Wistar rat cerebral cortex homogenate, S1 fraction
T1 sequence (P37136 32-614): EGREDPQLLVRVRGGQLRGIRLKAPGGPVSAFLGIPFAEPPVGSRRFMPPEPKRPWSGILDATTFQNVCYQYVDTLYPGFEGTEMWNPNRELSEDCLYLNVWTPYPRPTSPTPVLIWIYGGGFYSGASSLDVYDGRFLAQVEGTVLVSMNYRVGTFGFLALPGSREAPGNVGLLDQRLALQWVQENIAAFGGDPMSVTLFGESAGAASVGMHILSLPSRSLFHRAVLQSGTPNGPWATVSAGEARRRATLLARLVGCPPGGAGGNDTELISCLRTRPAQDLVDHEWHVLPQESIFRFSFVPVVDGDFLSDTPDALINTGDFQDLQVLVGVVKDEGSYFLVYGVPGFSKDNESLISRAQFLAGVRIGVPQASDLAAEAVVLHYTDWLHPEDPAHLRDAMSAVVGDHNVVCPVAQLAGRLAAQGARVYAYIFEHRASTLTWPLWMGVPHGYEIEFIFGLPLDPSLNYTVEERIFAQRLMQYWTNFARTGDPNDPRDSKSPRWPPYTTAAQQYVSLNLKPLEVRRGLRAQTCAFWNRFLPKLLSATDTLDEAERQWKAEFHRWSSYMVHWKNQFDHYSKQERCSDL
Method: The cholinesterase inhibitory activity of the compound of the present invention was tested, using (acetyl-[^3 H])-acetylcholine. Using the S1 fraction of a male Wistar rat cerebral cortex homogenate as a source of cholinesterase, (acetyl-[^3 H])-acetylcholine, as a substrate, and the test compound, as a sample, were incubated for 30 minutes. After the reaction was terminated, a toluene scintillator was added and the reaction mixture was shaken to migrate the [^3 H]-acetic acid resulting from the reaction to the toluene layer, where radioactivity was counted using a liquid scintillation counter to determine the cholinesterase inhibitory activity.
The sample's cholinesterase inhibitory activity was expressed by 50% inhibitory concentration (IC50).

[1] = test system: [3H]-serotonin (5-HT) uptake; assay: monoamine uptake inhibition, [3H]-serotonin (5-HT), crude synaptosomal preparations of cerebral cortex and hippocampus; assay type: biochemical; conditions: [^3 H]-HT 10 nM; 37° C; rat synaptosomes; read-out: Monoamine Reuptake Inhibitory Activity IC50, 5-HT
Method: (§1) Effects of the compound of this invention on monoamine uptake were investigated using [^3 H]-norepinephirine(NE) and [3H]-serotonin (5-HT). Rats were sacrificed by decapitation. The cerebral cortex and hippocampus were removed and homogenized in 10-15 volumes (W/V) of an ice-cold medium containing 0.32M sucrose. Crude synaptosomal preparations (P2) were isolated after differential centrifugation at 1000×g for 10 min and 20,000×g for 30 min at 4° C. Synaptosomal membranes were suspended in Krebs-Ringer bicarbonate (KRB) solution (116 mM NaCl, 4.8 mM KCl, 1.3 mM CaCl2, 1.2 mM MgSO4, 1.2 mM NaH2 PO4, 25 mM NaHCO3, 0.1 mM EDTA-2Na, 11.1 mM D-glucose, 0.11 mM L-ascorbic acid, 0.01 mM pargyline). Synaptosomal membrane suspension (900 μl) was preincubated with the test compound dissolved in DMSO solution at 37° C. for 5 min. The reaction was initiated by addition of 100 μl of [^3 H]-NE (11 nM in final concentration) or [^3 H]-HT (10 nM in final concentration). Five minutes later, the reaction was stopped by the addition of 4 ml of ice-cold KRB and the reaction mixture was filtered through Whatman CF/B. Filters were washed twice with 4 ml of KRB and the radioactivity bound was counted with liquid scintillant. Imipramine was used as positive control.

[2] = test system: [^3 H]-norepinephirine(NE) uptake; assay: monoamine uptake inhibition, [^3 H]-norepinephirine (NE), crude synaptosomal preparations of cerebral cortex and hippocampus; assay type: biochemical; conditions: [^3 H]-NE 11 nM; 37° C; rat synaptosomes; read-out: Monoamine Reuptake Inhibitory Activity IC50, NE
Method: as §1

[3] = background art; cited from earlier work

| SMILES | IC50 (Acetylcholinesterase) [nM] | IC50 [1] [nM] | IC50 [2] [nM] | duration of action [3] | toxicity [3] |
| --- | --- | --- | --- | --- | --- |
| O=C(CCN1CCC(Cc2ccccc2)CC1)c1cc2c3c(c1)CCN3C(=O)CC2 [31-4] | 188 | 20.7 | 160 | – | – |
| O=C(CCC1CCN(Cc2ccccc2)CC1)c1ccc2c3c1CCCC3CN2 (centres unmarked) [compound 4, 1-(1,2,2a,3,4,5-Hexahydrobenz[cd]indol-6-yl)-3-[1-(phenylmethyl)piperidin-4-yl]-1-propanone dihydrochloride] | 91.8 | 601 | 347 | – | – |
| Cc1ccccc1CN1CCN(CCC(=O)c2cc3c4c(c2)CC(=O)N4CCC3)CC1 [compound 23, 8-[3-[4-[(2-Methylphenyl)methyl]-1-piperazinyl]-1-oxopropyl]-5,6-dihydro-4H-pyroro[3,2,1-ij]quinolin-2(1H)-one dihydrochloride] | 61.4 | 66.8 | 2430 | – | – |
| CNC(=O)Oc1ccc2c(c1)[C@]1(C)CCN(C)[C@@H]1N2C [physostigmine] | – | – | – | short duration of action | strong toxicity |
